{"source": "paper PMC10313671", "about": "“Accelerating the prediction and discovery of peptide hydrogels with human-in-the-loop” (Nature Communications, 2023)", "key": {"[1]": {"experiment": "Peptide hydrogel formation, vial-inverting method", "assay_type": "physicochemical", "parameters": "key to EXP / GELATION: 0: no hydrogel; 1: hydrogel", "method_in_brief": "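Tetrapeptides dissolved in ultrapure water at 30 mM, pH brought to 6.5–8.5 with 1 N NaOH stepwise with brief ultrasonication, then left 48 h. Gel defined as self-supporting and non-flowing on vial inversion; non-gelling peptides retested at 60, 90 and 120 mM.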"}, "C57BL/6 mice": {"tested_on": "C57BL/6 mice", "assay_type": "in vivo, C57BL/6 J mice", "conditions": "serum day 21"}, "[2]": {"experiment": "Transmission electron microscope (negative staining) of peptide assemblies", "procedure": "We used the negative staining technique to observe the morphologies formed by peptides. A micropipette was used to load 10 μL of sample solution to a carbon-coated copper grid, and we used a piece of filter paper to remove the excess solution. After rinsing the grid with the deionized water, we used uranyl acetate to stain the sample for 1 minute and then rinsed the grid with deionized water again."}}, "note": "Where a SMILES comes first, the peptide text is derived from it.", "data": [{"smiles": "C[C@H](NC(=O)[C@@H](N)Cc1ccc(O)cc1)C(=O)N[C@@H](Cc1c[nH]c2ccccc12)C(=O)N[C@@H](Cc1ccccc1)C(=O)O", "note": "[YAWF] (H-YAWF-OH)", "values": [{"measurement": "State", "setting": "[1]; 60 mM peptide in ultrapure water, pH 6.5-8.5 (1 N NaOH), ultrasonication, standing 48 h, vial-inverting method, no gel at 30 mM", "value": "gel"}, {"measurement": "Concentration", "setting": "[1]; concentration at which the state was recorded: lowest of 30, 60, 90, 120 mM that gave a gel, 120 mM for non-gelating peptides", "value": 60000, "unit": "µM"}, {"measurement": "GELATION", "setting": "[1]; peptide concentration 60 mM, vial-inverting method, 1 = hydrogel, 0 = no hydrogel", "value": 1}, {"measurement": "hydrogel formation (in words)", "setting": "[1]; vial-inverting method, representative hydrogels pH between 7.0 to 7.5", "value": "can form hydrogels"}, {"measurement": "increase of RBD-specific IgG2b response compared with the commercial aluminum adjuvant group", "setting": "C57BL/6 mice; C57BL/6 mice", "value": "around 9.7 fold"}, {"measurement": "production of RBD-specific IgG1 (in words)", "setting": "C57BL/6 mice; C57BL/6 mice, similar to the aluminum group", "value": "significantly enhanced"}, {"measurement": "RBD-specific IgG2c titers (in words)", "setting": "C57BL/6 mice; C57BL/6 mice, surpassing aluminum group or control group", "value": "high IgG2c titers"}, {"measurement": "enhancement of the generation of IgG compared with the RBD group", "setting": "C57BL/6 mice; […], C57BL/6 mice", "value": 41.6, "unit": "fold"}, {"measurement": "endpoint titre of RBD-specific IgG in serum", "setting": "C57BL/6 mice; mean of n = 6 mice, s.c. immunization day 0, 7, 14 with 15 μg RBD alone, with 12.5 μL aluminum adjuvant or 60 mM YAWF hydrogel, […]", "value": 58615.2}, {"measurement": "Morphology", "setting": "[2]; TEM, negative staining with uranyl acetate, 120 kV, line of the table gives 60 mM", "value": "fibre"}, {"measurement": "morphology by TEM (in words)", "setting": "[2]; aqueous solution or hydrogel, negative staining", "value": "nanofibrous network"}]}]}
